We go through 19 compounds from US9637451B2, “Indole compound” (ASTELLAS PHARMA INC., priority 2014, dated 2017).

The structures appear in SMILES notation.

By EC50 is commonly meant the concentration giving half of the maximal effect. One may read the Emax as the maximal effect, on the per cent scale that the assay sets. By Kp is commonly meant the ratio of the level in a tissue or fluid to that in plasma or blood.

In one data set the target is T1, human MT1 receptor (Homo sapiens, UniProt P48039).
T1 construct: expressed in transfected cells
T1 sequence (P48039 whole entry): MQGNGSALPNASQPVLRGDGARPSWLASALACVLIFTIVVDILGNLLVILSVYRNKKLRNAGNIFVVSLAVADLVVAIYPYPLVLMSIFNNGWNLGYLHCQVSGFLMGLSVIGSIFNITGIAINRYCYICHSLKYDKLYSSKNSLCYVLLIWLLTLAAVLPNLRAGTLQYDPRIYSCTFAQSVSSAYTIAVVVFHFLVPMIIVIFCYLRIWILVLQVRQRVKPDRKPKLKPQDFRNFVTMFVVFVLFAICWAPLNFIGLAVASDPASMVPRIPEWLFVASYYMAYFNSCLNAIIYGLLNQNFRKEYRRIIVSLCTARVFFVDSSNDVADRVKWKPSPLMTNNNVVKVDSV
Nature of the data set: Activation of human MT1 receptor in receptor-expressing cells, intracellular Ca2+ by FLIPR. The class given is cell-based. To be noted: for EC50: HEK293EBNA1 cells stably expressing human MT1 and Gq/i chimeric G protein, Ca2+ FLIPR; for Emax: maximum reaction by ramelteon taken as 100%.

The next data set deals with T2, human MT2 receptor (Homo sapiens, UniProt P49286).
T2 construct: expressed in transfected cells
T2 sequence (P49286 1-362): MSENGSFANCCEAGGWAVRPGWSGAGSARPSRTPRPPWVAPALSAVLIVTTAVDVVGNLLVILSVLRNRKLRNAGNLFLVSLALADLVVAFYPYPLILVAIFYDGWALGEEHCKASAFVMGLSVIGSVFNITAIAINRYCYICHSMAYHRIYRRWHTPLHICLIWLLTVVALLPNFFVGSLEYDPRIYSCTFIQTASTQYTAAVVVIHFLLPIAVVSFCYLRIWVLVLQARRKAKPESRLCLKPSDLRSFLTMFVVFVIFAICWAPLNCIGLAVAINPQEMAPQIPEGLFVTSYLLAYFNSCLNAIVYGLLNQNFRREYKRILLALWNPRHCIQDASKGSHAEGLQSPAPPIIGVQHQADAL
Nature of the data set: Activation of human MT2 receptor in receptor-expressing cells, intracellular Ca2+ by FLIPR. The format is cell-based. The following applies: for EC50: HEK293 cells stably expressing human MT2 and Gq/i chimeric G protein, Ca2+ FLIPR; for Emax: maximum reaction by ramelteon taken as 100%.

A short description of data set [1]: CSF-to-plasma unbound concentration ratio in rat after intravenous administration. The format is in vivo. To be noted: CSF and plasma (unbound), iv, 15 minutes after intravenous administration, fp by ultracentrifugation method. As for the experimental part: A test compound (100 μg/mL, 50% acetonitrile solution) at 1% (v/v) with respect to the amount of the plasma was added to rat plasma, and dispensed to a sample for a supernatant and a sample for the plasma. The sample for a supernatant was ultracentrifuged at 436,000×g and 37° C. for 140 minutes, and the sample for the plasma was incubated at 37° C. for 140 minutes.
After 140 minutes, the sample for a supernatant after the ultracentrifugation and the sample for the plasma were taken, and mixed with the blank plasma or the blank supernatant, respectively. Acetonitrile including an internal standard material was added to each of the samples with the removal of protein, and after the centrifugation at 2150×g and 4° C. for 10 minutes the supernatant was injected into LC-MS/MS.
The unbound fraction in the plasma was calculated by the following equation.
To the plasma of a rat was added a test compound (0.2 mM, 50% acetonitrile solution) in an amount corresponding to 1% (v/v) of the plasma amount, and 200 μL of obtained plasma sample was filled into a plasma chamber of a RED device insert. A buffer chamber was filled with 350 μL of PBS, followed by performing equilibrium dialysis by stirring in a CO2 incubator at 37° C. for 16 hours. The sample after the completion of the equilibrium dialysis was recovered and the volume of the plasma sample was measured. To the plasma sample after the completion of the equilibrium dialysis were added PBS, a 20 mM ammonium formate buffer, and acetonitrile including an internal standard material. Similarly, to the PBS sample after the completion of the equilibrium dialysis was added a blank plasma, a 20 mM ammonium formate buffer, and acetonitrile including an internal standard material. This sample was left to stand at 4° C. for 30 minutes and then centrifuged 1500×g for 10 minutes, and the supernatant was measured by LC-MS/MS. The unbound fraction in the plasma was calculated by the following equation. fp=Cf/{(Cp−Cf)(V/V0)+Cf}
At 15 minutes after intravenously administration of the test compound to the rats, the plasma and CSF were collected. A 50% acetonitrile solution and an acetonitrile including internal standard material were added to the collected plasma or CSF. After centrifuging this sample at 4° C. and 2150×g for 10 minutes, the supernatant was measured by LC-MS/MS, and the total concentration of the test compound in the plasma (Cplasma,t) and the concentration of the test compound in CSF (CCSF) were obtained. The unbound concentration in the plasma (Cplasma,u) of the test compound and the CSF-to-plasma unbound concentration ratio (Kp,uu,CSF) of the test compound was calculated by the following equation.
(§1) The Kp,uu,CSF values and the Kp,brain values of ramelteon and some Example compounds of the present invention are shown in Table 4. Ex represents Example No. of the test compound. Unless otherwise specified, the Kp,uu,CSF was calculated using the fp values determined by an ultracentrifugation method. Further, N.T. represents Not Tested.
(Ramelteon represents the values of Kp,uu,CSF after 10 minutes after the intravenous administration. Further, the Kp,uu,CSF of Examples 37 and 38 was calculated using the fp values determined by an equilibrium dialysis method. In addition, N.D. denotes the concentration of the test compound in CSF that is no higher than the detection limit.)

Data set [2] is described as follows: Brain-to-plasma concentration ratio in rat after intravenous administration. The class given is in vivo. To be noted: brain and plasma, 15 minutes after intravenous administration. As for the experimental part: At 15 minutes after intravenously administration of the test compound to the rats, the plasma and brain were collected. A 50% acetonitrile solution and an acetonitrile including internal standard material were added to the collected plasma. The collected brain was added to a 2-fold volume of PBS and homogenized. A 50% acetonitrile solution and an acetonitrile including internal standard material were added to the brain homogenate. The sample was centrifuged at 4° C. and 2150×g for 10 minutes, the supernatant was measured by LC-MS/MS, and the total concentration of the test compound in the brain (Cbrain) and the total concentration of the test compound in the plasma (Cplasma,t) were obtained. The brain-to-plasma concentrations ratio (Kp,brain) was calculated by the following equation.
as §1

As for `CC(=O)NCCc1c[nH]c2ccc(OCCn3ccc(C(F)(F)F)n3)cc12` [Example 4, N-[2-(5-{2-[3-(trifluoromethyl)-1H-pyrazol-1-yl]ethoxy}-1H-indol-3-yl)ethyl]acetamide], the EC50 came to 18 nM at human MT1 receptor and 33 nM on human MT2 receptor. In addition, the maximal effect (Emax) at human MT1 receptor and at human MT2 receptor was 102% throughout. In addition, the Kp uu at 0.25 h in data set [1] was 0.11. In addition, in data set [2], the Kp at 0.25 h was found to be 0.29.
Turning to `COc1ccc(OCCOc2ccc3[nH]cc(CCNC(C)=O)c3c2)cn1` [Example 5, N-[2-(5-{2-[(6-methoxypyridin-3-yl)oxy]ethoxy}-1H-indol-3-yl)ethyl]acetamide], the values for the EC50 at human MT1 receptor and at human MT2 receptor were 13 nM and 150 nM, respectively. The Emax came out at 89% on human MT1 receptor and 48% at human MT2 receptor. Also, the Kp uu at 0.25 h in data set [1] is 0.1. For the same compound, the partition ratio (Kp) at 0.25 h in data set [2] amounted to 0.089.
Turning to `CC(=O)NCCc1c(C)[nH]c2ccc(OCCOc3ccn(C)n3)cc12` [Example 7, N-[2-(2-methyl-5-{2-[(1-methyl-1H-pyrazol-3-yl)oxy]ethoxy}-1H-indol-3-yl)ethyl]acetamide], on human MT1 receptor, the EC50 is 18 nM and the Emax was found to be 90%. Also, on human MT2 receptor, the EC50 was 22 nM and the Emax stood at 125%. In addition, in data set [1], the Kp uu at 0.25 h was determined as 0.14. Moreover, the Kp at 0.25 h in data set [2] turned out to be 0.03.
Consider `CCC(=O)NCCc1c[nH]c2ccc(OCCOc3ccn(C)n3)cc12` [Example 8, N-[2-(5-{2-[(1-methyl-1H-pyrazol-3-yl)oxy]ethoxy}-1H-indol-3-yl)ethyl]propanamide], for which the results for the EC50 at human MT1 receptor and on human MT2 receptor were 9.1 nM and 12 nM, respectively. Also, the Emax is 93% on human MT1 receptor and 107% at human MT2 receptor. In addition, the Kp uu at 0.25 h in data set [1] was 0.08. Also, the partition ratio (Kp) at 0.25 h in data set [2] was 0.04.
Consider `CNC(=O)NCCc1c(C)[nH]c2ccc(OCCOc3ccnc(C)c3)cc12` [Example 9, 1-methyl-3-[2-(2-methyl-5-{2-[(2-methylpyridin-4-yl)oxy]ethoxy}-1H-indol-3-yl)ethyl]urea], for which, at human MT1 receptor, the response was half-maximal at 9.9 nM (EC50) and the Emax came out at 84%. Further, on human MT2 receptor, the 50% effective concentration (EC50) was found to be 32 nM and the maximal effect (Emax) is 116%. Also, the concentration ratio (Kp) at 0.25 h in data set [2] was 0.01.
On human MT1 receptor, `CNC(=O)NCCc1c(C)[nH]c2ccc(OCCOc3ccn(C)n3)cc12` [Example 10, 1-methyl-3-[2-(2-methyl-5-{2-[(1-methyl-1H-pyrazol-3-yl)oxy]ethoxy}-1H-indol-3-yl)ethyl]urea] registered an EC50 of 8.3 nM and an Emax of 95%. For the same compound, at human MT2 receptor, the EC50 was 21 nM and the Emax was determined as 117%. For the same compound, the Kp uu at 0.25 h in data set [1] is 0.07. The partition ratio (Kp) at 0.25 h in data set [2] was 0.02.
Turning to `CC(=O)NCCc1c[nH]c2ccc(OCCOc3cccc(C)n3)cc12` [Example 11, N-[2-(5-{2-[(6-methylpyridin-2-yl)oxy]ethoxy}-1H-indol-3-yl)ethyl]acetamide], the EC50 at human MT1 receptor was 0.71 nM; at human MT2 receptor, 2.4 nM. In addition, the Emax was 107% on human MT1 receptor and 99% at human MT2 receptor. Besides, the Kp uu at 0.25 h in data set [1] is 0.05.
For the compound `CC(=O)NCCc1c(C)[nH]c2cc(F)c(OCCOc3ccn(C)n3)cc12` [Example 13, N-[2-(6-fluoro-2-methyl-5-{2-[(1-methyl-1H-pyrazol-3-yl)oxy]ethoxy}-1H-indol-3-yl)ethyl]acetamide], at human MT1 receptor, the concentration giving a half-maximal response (EC50) was determined as 4.3 nM and the maximal response (Emax) came to 105%. Besides, at human MT2 receptor, the EC50 is 7 nM and the Emax was 110%. Moreover, the Kp uu at 0.25 h in data set [1] stood at 0.03.
At human MT1 receptor, `CCC(=O)NCCc1c(C)[nH]c2ccc(OCCn3ccc(C)n3)cc12` [Example 15, N-(2-{2-methyl-5-[2-(3-methyl-1H-pyrazol-1-yl)ethoxy]-1H-indol-3-yl}ethyl)propanamide] had an EC50 of 8.4 nM and an Emax of 106%. At human MT2 receptor, this compound came in with an EC50 of 12 nM and a maximal effect (Emax) of 110%. Also, the Kp uu at 0.25 h in data set [1] turned out to be 0.04.
Regarding `CNC(=O)NCCc1c(C)[nH]c2ccc(OCCOc3ccc(OC)nc3)cc12` [Example 31, 1-[2-(5-{2-[(6-methoxypyridin-3-yl)oxy]ethoxy}-2-methyl-1H-indol-3-yl)ethyl]-3-methylurea], the half-maximal effective concentration (EC50) on human MT1 receptor is 1.4 nM; at human MT2 receptor, 28 nM. The Emax on human MT1 receptor was 104%; on human MT2 receptor it was 88%. Also, the Kp uu at 0.25 h in data set [1] turned out to be 0.01.
Regarding `CNC(=O)NCCc1c[nH]c2ccc(OCCOc3cncc(Cl)c3)cc12` [Example 56], at human MT1 receptor, it took 15 nM to reach a half-maximal effect (EC50) and the Emax worked out at 92%. For the same compound, on human MT2 receptor, the EC50 came out at 9.9 nM and the Emax turned out to be 125%.
At human MT1 receptor, `CC(=O)NCCc1c[nH]c2ccc(OCCOc3cncc(F)c3)cc12` [Example 57] came in with a concentration giving a half-maximal response (EC50) of 12 nM and an Emax of 94%. At human MT2 receptor, the midpoint of the response, the EC50, lay at 13 nM and the maximal effect (Emax) was found to be 114%.
On to `CNC(=O)NCCc1c[nH]c2ccc(OCCOc3cccc(C)n3)cc12` [Example 58], for which, on human MT1 receptor, the response was half-maximal at 1.2 nM (EC50) and the Emax is 99%. Moreover, on human MT2 receptor, the concentration giving a half-maximal response (EC50) was determined as 3.4 nM and the Emax is 99%.
With `CC(=O)NCCc1c[nH]c2ccc(OCCOc3ccnc(C)c3)cc12` [Example 59], the EC50 on human MT1 receptor turned out to be 6.6 nM; at human MT2 receptor, 9.6 nM. In addition, the results for the maximal response (Emax) at human MT1 receptor and at human MT2 receptor were 120% and 99%, respectively.
At human MT1 receptor, `CC(=O)NCCc1c[nH]c2ccc(OCCOc3cccc(C4CC4)n3)cc12` [Example 60] came in with a 50% effective concentration (EC50) of 7.2 nM and a maximal effect (Emax) of 94%. Besides, on human MT2 receptor, the concentration giving a half-maximal response (EC50) is 9.2 nM and the maximal response (Emax) worked out at 104%.
On to `CCCc1cccc(OCCOc2ccc3[nH]cc(CCNC(C)=O)c3c2)n1` [Example 61], for which, at human MT1 receptor, it took 6.9 nM to reach a half-maximal effect (EC50) and the maximum response (Emax) turned out to be 84%. At human MT2 receptor, a half-maximal effect (EC50) was put at 5.4 nM and the Emax was 92%.
For the compound `CC(=O)NCCc1c[nH]c2ccc(OCCOc3nccc(C(F)(F)F)n3)cc12` [Example 62], the results for the concentration giving a half-maximal response (EC50) at human MT1 receptor and at human MT2 receptor were 11 nM and 16 nM, respectively. Moreover, the Emax worked out at 101% at human MT1 receptor and 118% at human MT2 receptor.
At human MT1 receptor, `CC(=O)NCCc1c[nH]c2ccc(OCCOc3ccon3)cc12` [Example 63] came in with an EC50 of 9.7 nM and a maximum response (Emax) of 90%. On human MT2 receptor, this compound came in with an EC50 of 9 nM and an Emax of 105%.
`CC(=O)NCCc1c[nH]c2ccc(OCCOc3ccccn3)cc12` [Example 64]: the 50% effective concentration (EC50) at human MT1 receptor amounted to 1.6 nM; at human MT2 receptor, 2.1 nM. Also, the maximal effect (Emax) was determined as 102% at human MT1 receptor and 116% at human MT2 receptor.
